{
  "source": "patent US20250160275A1",
  "about": "“COMPOUNDS FOR MODIFYING MEIOTIC RECOMBINATION AND METHODS RELATING THERETO” (The University of North Carolina at Chapel Hill, priority 2022, published 2025)",
  "key": {"[1]": {"tested_on": "flowering Arabidopsis thaliana plants", "test": "visual fluorescent pollen transgene assay, crossover frequency in interval I5d (chromosome 5)", "assay_type": "in vivo", "settings": "10% DMSO and 0.01% Silwet; for genetic map distance: p-value 0.000", "experimental": "An aqueous solution of 3-aminobutanoic acid was applied to flowering Arabidopsis thaliana plants to enhance the frequency of meiotic recombination (crossovers). Silwet, a spraying adjuvant, was added to the 3-aminobutanoic acid solution at a volume/volume concentration of 0.01%. The solution was applied to the plants by foliar spraying until the plants were drenched. Several concentrations of 3-aminobutanoic acid were used including 0.1, 1, 7.5, 10, 12.5 and 15 mM. As a control, other plants (i.e., control plants) were treated with an aqueous 0.01% solution of Silwet by foliar spraying the solution on the plants until the plants were drenched.\n(§1) Crossover frequencies were measured in pollen from treated and control plants using a visual fluorescent pollen transgene assay as described in Francis et al., Proc Natl Acad Sci USA. 2007; 104 (10): 3913-3918. In this assay pollen tetrads are scored as Parental Ditype (PD), Nonparental Ditype (NPD) or Tetratype (TT) and the frequency of those tetrad classes are used to calculate a genetic map distances in centiMorgans (cM) between reporter genes expressing fluorescent proteins. The genetic map distances between a pair of markers on chromosome 5 were compared between control plants and treated plants. The genetic interval between the two markers was designated as I5d. […] In Table 2, each experimental treatment is paired with data from control plants that were treated and scored together and designated with an experiment number in the first column.\nAn aqueous solution phenethyl isothiocyanate (IUPAC name: 2-isothiocyanatoethylbenzene) was applied to flowering Arabidopsis thaliana plants to enhance the frequency of meiotic recombination (crossovers). Phenethyl isothiocyanate in an aqueous solution containing 10% DMSO and 0.01% Silwet was applied by foliar spray until the plants were drenched. The phenethyl isothiocyanate was first dissolved in 100% DMSO and then diluted to its final concentration with 0.0.1% Silwet in water. Several concentrations of phenethyl isothiocyanate were used including 7.5, 10, and 12.5 mM. Control plants were treated with an aqueous solution of 10% DMSO and 0.01% Silwet by foliar spraying the solution on the control plants until the control plants were drenched.\nas §1, with “4,” for “2,”\nAn aqueous solution BIX-01294 (IUPAC name: N-(1-benzylpiperidin-4-yl)-6,7-dimethoxy-2-(4-methyl-1,4-diazepan-1-yl) quinazolin-4-amine) was applied to flowering Arabidopsis thaliana plants to enhance the frequency of meiotic recombination (crossovers). BIX-01294 in an aqueous solution containing 10% DMSO and 0.01% Silwet was applied by foliar spray until the plants were drenched. The BIX-01294 was first dissolved in 100% DMSO and then diluted to its final concentration with 0.0.1% Silwet in water. Several concentrations of […] were used including 0.5, 1, 2.5 and 5 mM. Control plants were treated with an aqueous solution of 10% DMSO and 0.01% Silwet by foliar spraying the solution on the control plants until the control plants were drenched. […]"}, "[2]": {"tested_on": "rice (Kitaake x Nipponbare F1 plants)", "test": "meiotic recombination in rice F1 plants, recombinant reads in sequenced pollen DNA", "assay_type": "in vivo, Oryza sativa subspecies japonica", "settings": "7.5 mM whole-plant spray at panicle stage, 10% DMSO and 0.01% Silwet; pollen harvested after 5-7 days", "source_text": "Meiotic recombination was stimulated in rice by external application of phenethyl isothiocyanate (IUPAC name: 2-isothiocyanatoethylbenzene). First, two parental rice lines, “Oryza sativa subspecies japonica variety Kitaake” (“Kitaake” hereafter) and “Oryza sativa subspecies japonica variety Nipponbare” (“Nipponbare” hereafter) were manually crossed to produce F1 seeds. F1 seeds were germinated and grown to produce F1 plants. PCR was used to genotype the F1 plants and confirm their heterozygosity. When F1 plants produced panicles (inflorescences) they were treated by spraying the whole plant, until saturation, with 7.5 mM phenethyl isothiocyanate in an aqueous solution containing 10% DMSO and 0.01% Silwet. The phenethyl isothiocyanate was first dissolved in 100% DMSO and then diluted to its final concentration with 0.0.1% Silwet in water. Control plants were mock-treated with 10% DMSO and 0.01% Silwet. […] Reads that spanned at least two parental SNPs were selected and binned into those that contained SNPs of only the Kitaake type (non-recombinant), only the Nipponbare type (non-recombinant) or both Kitaake and Nipponbare type (recombinant). The frequency of recombinant reads from treated and untreated plants were compared to detect an increase in meiotic recombination resulting from treatment with phenethyl isothiocyanate."}},
  "data": [
    {"smiles": "S=C=NCCc1ccccc1", "note": "[phenethyl isothiocyanate, 2-isothiocyanatoethylbenzene]", "values": [
      {"measurement": "NPD (Nonparental Ditype pollen tetrads)", "setting": "[1]; 7.5 mM foliar spray, Exp.(2)", "value": 2},
      {"measurement": "PD (Parental Ditype pollen tetrads)", "setting": "[1]; 7.5 mM foliar spray, Exp.(2)", "value": 978},
      {"measurement": "TT (Tetratype pollen tetrads)", "setting": "[1]; 7.5 mM foliar spray, Exp.(2)", "value": 211},
      {"measurement": "genetic map distance", "setting": "[1]; 7.5 mM foliar spray, Exp.(2), DMSO control 5.90 cM", "value": 9.36, "unit": "cM"},
      {"measurement": "NPD (Nonparental Ditype pollen tetrads)", "setting": "[1]; 10 mM foliar spray, Exp.(1)", "value": 0},
      {"measurement": "PD (Parental Ditype pollen tetrads)", "setting": "[1]; 10 mM foliar spray, Exp.(1)", "value": 1840},
      {"measurement": "TT (Tetratype pollen tetrads)", "setting": "[1]; 10 mM foliar spray, Exp.(1)", "value": 370},
      {"measurement": "genetic map distance", "setting": "[1]; 10 mM foliar spray, Exp.(1), DMSO control 5.77 cM", "value": 8.37, "unit": "cM"},
      {"measurement": "NPD (Nonparental Ditype pollen tetrads)", "setting": "[1]; 12.5 mM foliar spray, Exp.(2)", "value": 0},
      {"measurement": "PD (Parental Ditype pollen tetrads)", "setting": "[1]; 12.5 mM foliar spray, Exp.(2)", "value": 868},
      {"measurement": "TT (Tetratype pollen tetrads)", "setting": "[1]; 12.5 mM foliar spray, Exp.(2)", "value": 200},
      {"measurement": "genetic map distance", "setting": "[1]; 12.5 mM foliar spray, Exp.(2), DMSO control 5.90 cM", "value": 9.36, "unit": "cM"},
      {"measurement": "meiotic recombination in treated plants compared to controls", "setting": "[1]; all concentrations (7.5, 10, 12.5 mM)", "value": "increase meiotic recombination"},
      {"measurement": "meiotic recombination in rice", "setting": "[2]", "value": "stimulated"}
    ]}
  ]
}
